# Data taken from patent EP0783524B1, “PEPTIDES AND PHARMACEUTICAL COMPOSITIONS COMPRISING THEM” (YEDA RESEARCH AND DEVELOPMENT CO. LTD., priority 1994, dated 2005).
# Experiments:
# anti-idiotypic T cells = assay: Immunization followed by spleen T cell proliferation assay (anti-idiotypic response), NOD mice; assay type: in vivo; details: NOD female mice, 12 weeks old, 100 µg per mouse subcutaneously in IPA; tested 2 or 5 weeks after treatment; C9VDJ peptide 5 µg/ml (Figure 9)
# Description: The peptides are useful for the production of a medicine for vaccination against IDDM. • Figure 1. Determination by PCR of TCR, Vβ gene usage in the C9 clone. Lanes 1-19: the 19 different Vβ amplification reactions with the Cβ oligonucleotide primer. Lane s.m.: fx/Hae III size marker. The gel was hybridized with an internal Cβ oligonucleotide probe and therefore the size marker is printed. The two positive bands for Vβ2 and Vβ12 indicate the existence of these segments in the C9 clone. • Figure 2. The presence of sequences homologous to the C9 VDJ rearrangement determined by PCR in different T-cell lines using the specific C9 VDJ oligonucleotide primer. The first four lanes show the results of the NOD lines C9 (lane 1), C7 (2), N4 (3), and an anti-ovalbumin line (4). […] T cell responses to hep60 (idiotype) and to the C9 clone (anti-idiotype) were measured in naive female and male NOD mice. […] The proliferative response was measured'by adding 3H-thymidine to the culture for the last 16 h of a 72 h stimulation. The incorporated 3H-thymidine was measured on a β-counter and the stimulation index (SI) was calculated as cpm incorporation in the presence of antigen/cpm incorporation in the absence of antigen. […]
# NOD mice = details: results of refs (3) and (4); cited from earlier work
sequence,measurement,setting,value
VLGGGCALLRCIPALDSLTPANED (SEQ ID NO:5) [p277],anti-C9 response (proliferation to C9VDJ peptide) after peptide treatment,anti-idiotypic T cells,induces anti-C9 response
same,prevention or reversal of diabetes by vaccination,NOD mice,could prevent (3) or even reverse diabetes
